Reference: ChEMBL document CHEMBL1201861, “Genomics of Drug Sensitity in Cancer screening data, Wellcome Trust Sanger Institute”

Assays:
Test in all cases: cells
CTV-1 = format: functional, cell-based; conditions: Homo sapiens
Description: SANGER: Inhibition of human CTV-1 cell growth in a cell viability assay.

DK-MG = format: functional, cell-based, Homo sapiens; conditions: Homo sapiens, DK-MG
Description: SANGER: Inhibition of human DK-MG cell growth in a cell viability assay.

DOK = format: functional, cell-based, Homo sapiens; conditions: Homo sapiens, DOK
Description: SANGER: Inhibition of human DOK cell growth in a cell viability assay.

G-402 = format: functional, cell-based, Homo sapiens; conditions: Homo sapiens, G-402
Description: SANGER: Inhibition of human G-402 cell growth in a cell viability assay.

GCT = format: functional, cell-based, Homo sapiens; conditions: Homo sapiens, GCT
Description: SANGER: Inhibition of human GCT cell growth in a cell viability assay.

H4 = format: functional, cell-based; conditions: Homo sapiens
Description: SANGER: Inhibition of human H4 cell growth in a cell viability assay.

HAL-01 = format: functional, cell-based; conditions: Homo sapiens
Description: SANGER: Inhibition of human HAL-01 cell growth in a cell viability assay.

HCC1395 = format: functional, cell-based, Homo sapiens; conditions: Homo sapiens, HCC1395
Description: SANGER: Inhibition of human HCC1395 cell growth in a cell viability assay.

HCC1806 = format: functional, cell-based, Homo sapiens; conditions: Homo sapiens, HCC1806
Description: SANGER: Inhibition of human HCC1806 cell growth in a cell viability assay.

HH = format: functional, cell-based; conditions: Homo sapiens
Description: SANGER: Inhibition of human HH cell growth in a cell viability assay.

HuCCT-1 = format: functional, cell-based, Homo sapiens, HuCCT1; conditions: Homo sapiens, HuCCT-1
Description: SANGER: Inhibition of human HuCCT1 cell growth in a cell viability assay.

HuP-T4 = format: functional, cell-based, Homo sapiens; conditions: Homo sapiens, HuP-T4
Description: SANGER: Inhibition of human HuP-T4 cell growth in a cell viability assay.

IA-LM = format: functional, cell-based, Homo sapiens; conditions: Homo sapiens, IA-LM
Description: SANGER: Inhibition of human IA-LM cell growth in a cell viability assay.

IST-SL1 = format: functional, cell-based, Homo sapiens; conditions: Homo sapiens, IST-SL1
Description: SANGER: Inhibition of human IST-SL1 cell growth in a cell viability assay.

JAR = format: functional, cell-based, Homo sapiens; conditions: Homo sapiens, JAR
Description: SANGER: Inhibition of human JAR cell growth in a cell viability assay.

KARPAS-299 = format: functional, cell-based; conditions: Homo sapiens
Description: SANGER: Inhibition of human KARPAS-299 cell growth in a cell viability assay.

KM-H2 = format: functional, cell-based; conditions: Homo sapiens
Description: SANGER: Inhibition of human KM-H2 cell growth in a cell viability assay.

KM12 = format: functional, cell-based, Homo sapiens; conditions: Homo sapiens, KM12
Description: SANGER: Inhibition of human KM12 cell growth in a cell viability assay.

KOSC-2 = format: functional, cell-based, Homo sapiens; conditions: Homo sapiens, KOSC-2
Description: SANGER: Inhibition of human KOSC-2 cell growth in a cell viability assay.

KS-1 = format: functional, cell-based, Homo sapiens; conditions: Homo sapiens, KS-1
Description: SANGER: Inhibition of human KS-1 cell growth in a cell viability assay.

KU812 cell line = format: functional, cell-based; conditions: Homo sapiens
Description: SANGER: Inhibition of human KU812 cell growth in a cell viability assay.

LAMA-84 = format: functional, cell-based; conditions: Homo sapiens
Description: SANGER: Inhibition of human LAMA-84 cell growth in a cell viability assay.

LS-411N = format: functional, cell-based, Homo sapiens; conditions: Homo sapiens, LS-411N
MC116 = format: functional, cell-based; conditions: Homo sapiens
Description: SANGER: Inhibition of human MC116 cell growth in a cell viability assay.

MEL-HO = format: functional, cell-based, Homo sapiens; conditions: Homo sapiens, MEL-HO
Description: SANGER: Inhibition of human MEL-HO cell growth in a cell viability assay.

MFM-223 = format: functional, cell-based, Homo sapiens; conditions: Homo sapiens, MFM-223
Description: SANGER: Inhibition of human MFM-223 cell growth in a cell viability assay.

MG-63 = format: functional, cell-based, Homo sapiens; conditions: Homo sapiens, MG-63
Description: SANGER: Inhibition of human MG-63 cell growth in a cell viability assay.

NCI-H1581 = format: functional, cell-based, Homo sapiens; conditions: Homo sapiens, NCI-H1581
Description: SANGER: Inhibition of human NCI-H1581 cell growth in a cell viability assay.

NCI-H727 = format: functional, cell-based, Homo sapiens; conditions: Homo sapiens, NCI-H727
Description: SANGER: Inhibition of human NCI-H727 cell growth in a cell viability assay.

NTERA-2-cl-D1 = format: functional, cell-based, Homo sapiens; conditions: Homo sapiens, NTERA-2-cl-D1
Description: SANGER: Inhibition of human NTERA-S-cl-D1 cell growth in a cell viability assay.

OCI-AML2 = format: functional, cell-based; conditions: Homo sapiens
Description: SANGER: Inhibition of human OCI-AML2 cell growth in a cell viability assay.

OMC-1 = format: functional, cell-based, Homo sapiens; conditions: Homo sapiens, OMC-1
Description: SANGER: Inhibition of human OMC-1 cell growth in a cell viability assay.

OVCAR-4 = format: functional, cell-based, Homo sapiens; conditions: Homo sapiens, OVCAR-4
Description: SANGER: Inhibition of human OVCAR-4 cell growth in a cell viability assay.

RPMI-7951 = format: functional, cell-based, Homo sapiens; conditions: Homo sapiens, RPMI-7951
Description: SANGER: Inhibition of human RPMI-7951 cell growth in a cell viability assay.

RT-112 = format: functional, cell-based, Homo sapiens; conditions: Homo sapiens, RT-112
Description: SANGER: Inhibition of human RT-112 cell growth in a cell viability assay.

SK-NEP-1 = format: functional, cell-based; conditions: Homo sapiens
Description: SANGER: Inhibition of human SK-NEP-1 cell growth in a cell viability assay.

SK-OV-3 = format: functional, cell-based, Homo sapiens; conditions: Homo sapiens, SK-OV-3
Description: SANGER: Inhibition of human SK-OV-3 cell growth in a cell viability assay.

SW1783 = format: functional, cell-based; conditions: Homo sapiens
Description: SANGER: Inhibition of human SW1783 cell growth in a cell viability assay.

697 = format: functional, cell-based; conditions: Homo sapiens
Description: SANGER: Inhibition of human 697 cell growth in a cell viability assay.

A204 = format: functional, cell-based, Homo sapiens; conditions: Homo sapiens, A204
Description: SANGER: Inhibition of human A204 cell growth in a cell viability assay.

A-375 = format: functional, cell-based, Homo sapiens; conditions: Homo sapiens, A-375
Description: SANGER: Inhibition of human A375 cell growth in a cell viability assay.

A-431 = format: functional, cell-based, Homo sapiens; conditions: Homo sapiens, A-431
Description: SANGER: Inhibition of human A431 cell growth in a cell viability assay.

BE-13 = format: functional, cell-based; conditions: Homo sapiens
Description: SANGER: Inhibition of human BE-13 cell growth in a cell viability assay.

BEN = format: functional, cell-based, Homo sapiens; conditions: Homo sapiens, BEN
Description: SANGER: Inhibition of human BEN cell growth in a cell viability assay.

BFTC-905 = format: functional, cell-based, Homo sapiens; conditions: Homo sapiens, BFTC-905
Description: SANGER: Inhibition of human BFTC-905 cell growth in a cell viability assay.

CAL-33 = format: functional, cell-based, Homo sapiens; conditions: Homo sapiens, CAL-33
Description: SANGER: Inhibition of human CAL-33 cell growth in a cell viability assay.

CAL-85-1 = format: functional, cell-based; conditions: Homo sapiens
Description: SANGER: Inhibition of human CAL-85-1 cell growth in a cell viability assay.

TE-10 = format: functional, cell-based, Homo sapiens; conditions: Homo sapiens, TE-10
Description: SANGER: Inhibition of human TE-10 cell growth in a cell viability assay.

U-87 MG = format: functional, cell-based, U-87MG ATCC; conditions: Homo sapiens
Description: SANGER: Inhibition of human U-87-MG cell growth in a cell viability assay.

UO-31 = format: functional, cell-based; conditions: Homo sapiens
Description: SANGER: Inhibition of human U031 cell growth in a cell viability assay.

UACC-257 = format: functional, cell-based, Homo sapiens; conditions: Homo sapiens, UACC-257
Description: SANGER: Inhibition of human UACC-257 cell growth in a cell viability assay.

CAMA-1 = format: functional, cell-based, Homo sapiens; conditions: Homo sapiens, CAMA-1
Description: SANGER: Inhibition of human CAMA-1 cell growth in a cell viability assay.

## Cn1cncc1[C@@](N)(c1ccc(Cl)cc1)c1ccc2c(c1)c(-c1cccc(Cl)c1)cc(=O)n2C [TIPIFARNIB]
CTV-1
  IC50: 4580 nM
DK-MG
  IC50: > 16000 nM
DOK
  IC50: > 16000 nM
G-402
  IC50: 2110 nM
GCT
  IC50: > 16000 nM
H4
  IC50: 1220 nM
HAL-01
  IC50: 6740 nM
HCC1395
  IC50: 14900 nM
HCC1806
  IC50: 11900 nM
HH
  IC50: 191 nM
HuCCT-1
  IC50: 4310 nM
HuP-T4
  IC50: 3030 nM
IA-LM
  IC50: 47.5 nM
IST-SL1
  IC50: > 16000 nM
JAR
  IC50: > 16000 nM
KARPAS-299
  IC50: > 16000 nM
KM-H2
  IC50: > 16000 nM
KM12
  IC50: 117 nM
KOSC-2
  IC50: > 16000 nM
KS-1
  IC50: 770 nM
KU812 cell line
  IC50: 97.1 nM
LAMA-84
  IC50: 6420 nM
LS-411N
  IC50: 1100 nM
MC116
  IC50: 4030 nM
MEL-HO
  IC50: 2240 nM
MFM-223
  IC50: > 16000 nM
MG-63
  IC50: 1840 nM
NCI-H1581
  IC50: > 16000 nM
NCI-H727
  IC50: 874 nM
NTERA-2-cl-D1
  IC50: 237 nM
OCI-AML2
  IC50: 2030 nM
OMC-1
  IC50: 6490 nM
OVCAR-4
  IC50: 2210 nM
RPMI-7951
  IC50: 13500 nM
RT-112
  IC50: 382 nM
SK-NEP-1
  IC50: 9940 nM
SK-OV-3
  IC50: 2490 nM
SW1783
  IC50: 1260 nM
697
  IC50: 1280 nM
A204
  IC50: 3580 nM
A-375
  IC50: 616 nM
A-431
  IC50: 655 nM
BE-13
  IC50: 4940 nM
BEN
  IC50: 5400 nM
BFTC-905
  IC50: 1880 nM
CAL-33
  IC50: 3680 nM
CAL-85-1
  IC50: 1250 nM
TE-10
  IC50: 812 nM
U-87 MG
  IC50: > 16000 nM
UO-31
  IC50: 10700 nM
UACC-257
  IC50: > 16000 nM
CAMA-1
  IC50: > 16000 nM

## CCC1=C[C@@H]2CN(C1)Cc1c([nH]c3ccccc13)[C@@](C(=O)OC)(c1cc3c(cc1OC)N(C)[C@H]1[C@@](O)(C(=O)OC)[C@H](OC(C)=O)[C@]4(CC)C=CCN5CC[C@]31[C@@H]54)C2 [VINORELBINE]
CTV-1
  IC50: 5.01 nM
DK-MG
  IC50: > 64 nM
DOK
  IC50: > 64 nM
G-402
  IC50: 32.1 nM
GCT
  IC50: 50.8 nM
H4
  IC50: 7.85 nM
HAL-01
  IC50: > 64 nM
HCC1395
  IC50: 15.9 nM
HCC1806
  IC50: 23.9 nM
HH
  IC50: 8.88 nM
HuCCT-1
  IC50: 2.78 nM
HuP-T4
  IC50: 37.3 nM
IA-LM
  IC50: 3.71 nM
IST-SL1
  IC50: 39.3 nM
JAR
  IC50: > 64 nM
KARPAS-299
  IC50: > 64 nM
KM-H2
  IC50: 9.11 nM
KM12
  IC50: 2.61 nM
KOSC-2
  IC50: > 64 nM
KS-1
  IC50: 1.47 nM
KU812 cell line
  IC50: 9.3 nM
LAMA-84
  IC50: 45.8 nM
LS-411N
  IC50: 3.17 nM
MC116
  IC50: 15.5 nM
MEL-HO
  IC50: 3.29 nM
MFM-223
  IC50: > 64 nM
MG-63
  IC50: 2.94 nM
NCI-H1581
  IC50: 37.2 nM
NCI-H727
  IC50: > 64 nM
NTERA-2-cl-D1
  IC50: 0.939 nM
OCI-AML2
  IC50: 10.3 nM
OMC-1
  IC50: > 64 nM
OVCAR-4
  IC50: 1.75 nM
RPMI-7951
  IC50: 8.82 nM
RT-112
  IC50: 3.37 nM
SK-NEP-1
  IC50: 8.99 nM
SK-OV-3
  IC50: 8.39 nM
SW1783
  IC50: > 64 nM
697
  IC50: 4.23 nM
A204
  IC50: 3.21 nM
A-375
  IC50: 38.2 nM
A-431
  IC50: 2.9 nM
BE-13
  IC50: 12.4 nM
BEN
  IC50: 58.1 nM
BFTC-905
  IC50: 3.62 nM
CAL-33
  IC50: 5.02 nM
CAL-85-1
  IC50: 4.9 nM
TE-10
  IC50: 3.62 nM
U-87 MG
  IC50: 27.1 nM
UO-31
  IC50: > 64 nM
UACC-257
  IC50: 30.4 nM
CAMA-1
  IC50: 45.6 nM
